Assay results taken from patent publication US8779202B2, “Compositions and methods for the treatment of giardiasis” (Georgetown University, priority 2009, dated 2014).

Experiments:
Giardia parasites = assay: Video microscopy of parasite morphology and dynamics; format: cell-based, Giardia lamblia; conditions: for Observed Parasite Morphology and Dynamics: Table I, video microscopy at 50, 15, 10, 5 and 1 μM
Method: A series of video microscopy studies were undertaken to examine the effect of the compounds on parasite morphology and dynamics. Short 1 minute videos of parasite behavior were recorded using DIC optics on a Zeiss AXIOPLAN microscope (Carl Zeiss Microimaging GmbH, Germany) using a Photometrics CCD camera (Photometrics, Inc.; Tucson, Ariz.). Recordings were made on at least three separate occasions at compound concentrations of 50 μM, 15 μM, 10 μM, 5 μM, and 1 μM to allow comparison to the dose-response curves in the attachment assay. Four broad categories of compound action were found (see Table I).

[1] = system: Giardia parasite cultures; assay: Reversibility of compound effect on Giardia viability and attachment; format: cell-based, Giardia lamblia; conditions: 15 μM, 30 minutes-2 hours in PBS at 37° C., wash, 48 hours in growth media
Method: Parasite cultures were treated for 30 minutes—2 hours with 15 μM of Compounds I-16, III-1, IV-1, V-1, VI-1, VII-1, and VIII-2A in PBS at 37° C. Parasites were then washed with warm PBS to remove compounds, and were placed in normal Giardia growth media for an additional 48 hours. […] All comparisons were made to cultures of untreated Giardia.

Compound | effect on parasite morphology and activity (Giardia parasites) | Observed Parasite Morphology and Dynamics (Giardia parasites) | reversibility of effect on parasite attachment and viability [1]
Oc1ccc2ccccc2c1CN(Cc1c(O)ccc2ccccc12)C1CCCCC1 [Compound I-16] | no observable effect on parasite morphology and activity, but did significantly reduce attachment | Parasites appear normal in morphology and activity, | largely reversible
Nogalamycin [Compound VII-1] | no observable effect on Giardia morphology, but did cause flagellar paralysis | Parasites display disrupted peripheral morphology, | largely reversible
CC(Br)C(=O)c1ccc2cc(Br)c3ccccc3c2c1 (centres unmarked) [Compound III-1] | profoundly disrupted parasite morphology or simply destroyed the parasites | Parasites display a profoundly disrupted morphology | irreversible
O=C1C=C(N2CCN(c3ccccn3)CC2)C(=O)c2c(O)ccc(O)c21 [Compound IV-1] | profoundly disrupted parasite morphology or simply destroyed the parasites | Parasites display a profoundly disrupted morphology | irreversible
Cc1c(Cl)cc(C(C)(C)C)c(O)c1Cc1c(C)c(Cl)cc(C(C)(C)C)c1O [Compound VI-1] | disrupted peripheral morphology, resulting either in loss of overall shape or localized membrane blebbing | Parasites display disrupted peripheral morphology, | largely reversible
Nc1nc(SCc2ccccc2[N+](=O)[O-])c2[nH]cnc2n1 [Compound V-1] | disrupted peripheral morphology, resulting either in loss of overall shape or localized membrane blebbing |  | largely reversible
C[C@H]1CC[C@@H]2[C@@H](C)[C@H]3[C@H](C[C@H]4[C@@H]5CC=C6C[C@@H](O)CC[C@]6(C)[C@H]5CC[C@]34C)N2C1 [Compound VIII-2A] | no observable effect on parasite morphology and activity, but did significantly reduce attachment | Parasites appear normal in morphology and activity, | largely reversible
